Measurements taken from US9993494B2, “Compositions and methods for treating fibrotic disease” (eFFECTOR Therapeutics, Inc., priority 2014, dated 2018).

Test system: normal human lung fibroblasts
Assay: Ribosomal profiling: translational efficiency in TGFβ-treated fibroblasts
Format: cell-based
Details: TGFβ-treated fibroblasts
Experimental: Ribosomal profiling allows for measurement of changes in transcription and translation on a genome-wide basis accompanying TGFβ-dependent transformation of fibroblasts to myofibroblasts. Ribosomal profiles of the TGFβ-treated fibroblasts from Example 1 (about 6×10^6 cells/10 cm plate) were prepared and analyzed for changes in translational efficiencies with respect to potential disease-associated cellular changes accompanying this TGFβ-induced transformation.
Briefly, cells were washed with cold PBS supplemented with cycloheximide and lysed with 1× mammalian cell lysis buffer for 10 minutes on ice. Lysates were clarified by centrifugation for 10 minutes at 14,000 rpm and supernatants were collected. Cell lysates were processed to generate ribosomal protected fragments and total mRNA according to the instructions included with the ARTseq Ribosome Profiling Kit (Illumina, San Diego, Calif.). Sequencing of total RNA (RNA) and of ribosome-protected fragments of RNA (RPF) was carried out using RNA-Seq methodology according to the manufacturer's instructions (Illumina). To analyze the ribosomal profiles, RNA-Seq reads were processed with tools from the FASTX-Toolkit (fastq_quality_trimmer, fastx_clipper and fastx_trimmer). Unprocessed and processed reads were evaluated for a variety of quality measures using FastQC, and processed reads were mapped to the human genome using TopHat (see, e.g., Trapnell et al., Bioinformatics 25:1105, 2009). Gene-by-gene assessment of the number of fragments strictly and uniquely mapping to the coding region of each gene was conducted using HTSeq-count, a component of the HTSeq package. […] Genes with low counts in either RPF or RNA were excluded from differential analyses. Pathway and network analyses of differential data were conducted using Ingenuity Pathway Analysis (IPA).

Structure (SMILES): CC(C)n1nc(-c2cc3cc(O)ccc3[nH]2)c2c(N)ncnc21 [PP242]
- effect in renormalizing the translational profile of the gene (gene RPS6KA5 (ENSG00000100784)): + (+ = 0.9 to 1.5)
- effect in renormalizing the translational profile of the gene (gene RPS7 (ENSG00000171863)): − (− = <0.9)
- effect in renormalizing the translational profile of the gene (gene RPS8 (ENSG00000142937)): − (− = <0.9)
- effect in renormalizing the translational profile of the gene (gene RPS9 (ENSG00000170889)): − (− = <0.9)
- effect in renormalizing the translational profile of the gene (gene RPS10 (ENSG00000124614)): − (− = <0.9)
- effect in renormalizing the translational profile of the gene (gene RPS11 (ENSG00000142534)): − (− = <0.9)
- effect in renormalizing the translational profile of the gene (gene RPS12 (ENSG00000112306)): − (− = <0.9)
- effect in renormalizing the translational profile of the gene (gene RPS13 (ENSG00000110700)): − (− = <0.9)
- effect in renormalizing the translational profile of the gene (gene RPS14 (ENSG00000164587)): − (− = <0.9)
- effect in renormalizing the translational profile of the gene (gene RPS15 (ENSG00000115268)): + (+ = 0.9 to 1.5)
- effect in renormalizing the translational profile of the gene (gene RPS15A (ENSG00000134419)): + (+ = 0.9 to 1.5)
- effect in renormalizing the translational profile of the gene (gene RPS16 (ENSG00000105193)): − (− = <0.9)
- effect in renormalizing the translational profile of the gene (gene RPS18 (ENSG00000231500)): + (+ = 0.9 to 1.5)
- effect in renormalizing the translational profile of the gene (gene RPS19 (ENSG00000105372)): − (− = <0.9)
- effect in renormalizing the translational profile of the gene (gene RPS20 (ENSG00000008988)): − (− = <0.9)
- effect in renormalizing the translational profile of the gene (gene RPS21 (ENSG00000171858)): − (− = <0.9)
- effect in renormalizing the translational profile of the gene (gene RPS23 (ENSG00000186468)): − (− = <0.9)
- effect in renormalizing the translational profile of the gene (gene RPS24 (ENSG00000138326)): − (− = <0.9)
- effect in renormalizing the translational profile of the gene (gene RPS25 (ENSG00000118181)): − (− = <0.9)
- effect in renormalizing the translational profile of the gene (gene RPS26 (ENSG00000197728)): − (− = <0.9)
- effect in renormalizing the translational profile of the gene (gene RPS27 (ENSG00000177954)): − (− = <0.9)
- effect in renormalizing the translational profile of the gene (gene RPS27A (ENSG00000143947)): − (− = <0.9)
- effect in renormalizing the translational profile of the gene (gene RPS28 (ENSG00000233927)): + (+ = 0.9 to 1.5)
- effect in renormalizing the translational profile of the gene (gene RPS29 (ENSG00000213741)): + (+ = 0.9 to 1.5)
- effect in renormalizing the translational profile of the gene (gene RPSA (ENSG00000168028)): − (− = <0.9)
- effect in renormalizing the translational profile of the gene (gene RTN2 (ENSG00000125744)): − (− = <0.9)
- effect in renormalizing the translational profile of the gene (gene SEMA3A (ENSG00000075213)): − (− = <0.9)
- effect in renormalizing the translational profile of the gene (gene SGIP1 (ENSG00000118473)): − (− = <0.9)
- effect in renormalizing the translational profile of the gene (gene SH3BGR (ENSG00000185437)): − (− = <0.9)
- effect in renormalizing the translational profile of the gene (gene SHC3 (ENSG00000148082)): − (− = <0.9)
- effect in renormalizing the translational profile of the gene (gene SLC2A12 (ENSG00000146411)): − (− = <0.9)
- effect in renormalizing the translational profile of the gene (gene SLC7A7 (ENSG00000155465)): − (− = <0.9)
- effect in renormalizing the translational profile of the gene (gene SLC15A3 (ENSG00000110446)): − (− = <0.9)
- effect in renormalizing the translational profile of the gene (gene SLC25A6 (ENSG00000169100)): − (− = <0.9)
- effect in renormalizing the translational profile of the gene (gene SLC40A1 (ENSG00000138449)): − (− = <0.9)
- effect in renormalizing the translational profile of the gene (gene SMO (ENSG00000128602)): − (− = <0.9)
- effect in renormalizing the translational profile of the gene (gene SNRPA (ENSG00000077312)): − (− = <0.9)
- effect in renormalizing the translational profile of the gene (gene SOX5 (ENSG00000134532)): − (− = <0.9)
- effect in renormalizing the translational profile of the gene (gene SOX6 (ENSG00000110693)): − (− = <0.9)
- effect in renormalizing the translational profile of the gene (gene SPATA6 (ENSG00000132122)): + (+ = 0.9 to 1.5)
- effect in renormalizing the translational profile of the gene (gene STAMBPL1 (ENSG00000138134)): − (− = <0.9)
- effect in renormalizing the translational profile of the gene (gene STS (ENSG00000101846)): − (− = <0.9)
- effect in renormalizing the translational profile of the gene (gene SYNE2 (ENSG00000054654)): − (− = <0.9)
- effect in renormalizing the translational profile of the gene (gene TAF1D (ENSG00000166012)): − (− = <0.9)
- effect in renormalizing the translational profile of the gene (gene TDG (ENSG00000139372)): − (− = <0.9)
- effect in renormalizing the translational profile of the gene (gene TEN1 (ENSG00000257949)): − (− = <0.9)
- effect in renormalizing the translational profile of the gene (gene TET2 (ENSG00000168769)): − (− = <0.9)
- effect in renormalizing the translational profile of the gene (gene TET3 (ENSG00000187605)): − (− = <0.9)
- effect in renormalizing the translational profile of the gene (gene TGFBI (ENSG00000120708)): − (− = <0.9)
- effect in renormalizing the translational profile of the gene (gene THBS3 (ENSG00000169231)): + (+ = 0.9 to 1.5)
- effect in renormalizing the translational profile of the gene (gene THG1L (ENSG00000113272)): − (− = <0.9)
- effect in renormalizing the translational profile of the gene (gene TIMM9 (ENSG00000100575)): − (− = <0.9)
- effect in renormalizing the translational profile of the gene (gene TKT (ENSG00000163931)): − (− = <0.9)
- effect in renormalizing the translational profile of the gene (gene TMTC1 (ENSG00000133687)): − (− = <0.9)
- effect in renormalizing the translational profile of the gene (gene TOMM7 (ENSG00000196683)): − (− = <0.9)
- effect in renormalizing the translational profile of the gene (gene TOP2A (ENSG00000131747)): − (− = <0.9)
- effect in renormalizing the translational profile of the gene (gene TPGS1 (ENSG00000141933)): − (− = <0.9)
- effect in renormalizing the translational profile of the gene (gene TPM2 (ENSG00000198467)): − (− = <0.9)
- effect in renormalizing the translational profile of the gene (gene TPT1 (ENSG00000133112)): − (− = <0.9)
- effect in renormalizing the translational profile of the gene (gene TRERF1 (ENSG00000124496)): − (− = <0.9)
- effect in renormalizing the translational profile of the gene (gene UBA52 (ENSG00000221983)): − (− = <0.9)
- effect in renormalizing the translational profile of the gene (gene UQCRB (ENSG00000156467)): − (− = <0.9)
- effect in renormalizing the translational profile of the gene (gene UTRN (ENSG00000152818)): − (− = <0.9)
- effect in renormalizing the translational profile of the gene (gene VIM (ENSG00000026025)): − (− = <0.9)
- effect in renormalizing the translational profile of the gene (gene ZNF581 (ENSG00000171425)): − (− = <0.9)
- effect in renormalizing the translational profile of the gene (gene ZNF608 (ENSG00000168916)): − (− = <0.9)
